In patent US20140357512A1, “HISTONE DEACETYLASE (HDAC) BIOMARKERS IN MULTIPLE MYELOMA” (priority 2013, published 2014):

Test system: human myeloma cell line MM.1S
Experiment: SILAC acetylated-lysine peptide profiling, HDAC inhibitor vs DMSO (light/heavy ratio)
Assay type: cell-based
From the text: An embodiment of the invention comprises utilizing the SILAC method in order to quantitate changes in protein expression between two or more populations of cells. The SILAC method is a technique based on mass spectrometry that detects differences in protein abundance among samples using non-radioactive isotopic labeling. The SILAC method is known in the art, and described in detail in Ong et al., “Stable Isotope Labeling by Amino Acids in Cell Culture, SILAC, as a Simple and Accurate Approach to Expression Proteomics”, Molecular & Cellular Proteomics, vol. 1, pp. 376-386 (2002), which is incorporated herein by reference in its entirety.
Briefly, the SILAC method involves growing two populations of cells in cell culture. The first population of cells is grown in growth media containing normal amino acids (“normal media”). The second population of cells is grown in media lacking a standard essential amino acid (such as lysine), but is then supplemented with a non-radioactive, isotopically labeled form of that essential amino acid (such as lysine labeled with ^13C atoms, rather than normal ^12C atoms), which is called “heavy media”. When the two populations of cells are each growing in the medium, they incorporate the amino acids into all of their proteins. The growth of cells maintained in the heavy media is no different from that in normal media. All peptides containing the heavy amino acids are heavier than their normal counterparts. The cells from each of the two populations of cells are lysed. The lysates from each of the two cell populations are then combined. The combined cell lysates are then analyzed by mass spectrometry. Pairs of chemically identical peptides of different stable isotope composition can be differentiated in a mass spectrometer due to their difference in mass. The ratio of peak intensities in the mass spectrum for such peptide pairs reflects the abundance ratio for the two proteins.
This example describes SILAC studies that were performed to compare the effects of three different HDAC inhibitors (Compound A, Compound B, and tubastatin A) to a control on a human multiple myeloma cell line. The HDAC inhibitors were also compared amongst themselves to determine differences in their effects.
A human myeloma cell line MM.1S was grown using either ^12C (light) or ^13C (heavy) lysine containing culture medium. The “heavy” cells were treated with DMSO as the control, and the “light” cells were treated with a single HDAC inhibitor at 37° C. for 6 hours. The heavy and light cells were lysed, and the lysates were mixed in 1:1 ratio and digested with the protease trypsin. The acetylated lysine containing peptides (due to the action of the HDAC inhibitor) in the digested peptide pool were captured by a non-specific anti-acetylated lysine antibody cocktail (the antibodies identify both light and heavy acetylated peptides), and subjected to mass spectrometry analysis in order to identify thousands of individual peptides.
Thousands of peptides were identified in pairs (^12C and ^13C) due to their known mass differences. The amino acid sequence and quantitative ratio (Light/Heavy) of a given peptide in two differentially treated cell lysates were then determined and annotated with their possible protein (gene) sources.
As stated above, three HDAC inhibitors (Compound A, Compound B, and Tubastatin A) were used. Thus, the SILAC method was performed three times, with a different HDAC inhibitor compared to a control each time. Accordingly, there are three pairs of quantitative data in the table below, i.e., Compound A:DMSO, Compound B:DMSO, and Tubastatin A:DMSO. A cut-off of 1.30 fold of change (increase or decrease) was then used to determine “changed” or “+” in the table, and any peptides with a fold of change less than 1.3 fold were determined to be “unchanged” or “0” in the table. Those peptides that were not identified were marked as “NA” in the table. […]

O=C(NO)c1cnc(NC2(c3cccc(F)c3)CCCCC2)nc1 [Compound B, 2-((1-(3-fluorophenyl)cyclohexyl)amino)-N-hydroxypyrimidine-5-carboxamide]
0.00: L/H ratio of acetylated peptide K(ac)[…] (SEQ ID NO: 42) (HMGB2 [30], log 2 scale, drug vs DMSO) | L/H ratio of acetylated peptide RGEEGHDPK(ac)EPEQLR (SEQ ID NO: 43) (HNRNPA3 [29], log 2 scale, drug vs DMSO) | L/H ratio of acetylated peptide […](ac)WQSLK (SEQ ID NO: 44) (HNRNPM [83], log 2 scale, drug vs DMSO) | L/H ratio of acetylated peptide VK(ac)VLFVR (SEQ ID NO: 45) (HNRNPR [341], log 2 scale, drug vs DMSO) | L/H ratio of acetylated peptide […](ac)YSR (SEQ ID NO: 46) (HNRNPU [246], log 2 scale, drug vs DMSO) | L/H ratio of acetylated peptide TTWVTK(ac)HAAENPGK (SEQ ID NO: 47) (HNRNPU [497], log 2 scale, drug vs DMSO) | L/H ratio of acetylated peptide NK(ac)EIFLR (SEQ ID NO: 52) (HSP90B1 [97], log 2 scale, drug vs DMSO) | L/H ratio of acetylated peptide […](ac)IR (SEQ ID NO: 49) (HSP90B1 [114], log 2 scale, drug vs DMSO) | L/H ratio of acetylated peptide ETLQQHK(ac)LLK (SEQ ID NO: 50) (HSP90B1 [455], log 2 scale, drug vs DMSO) | L/H ratio of acetylated peptide IADDK(ac)YNDTFWK (SEQ ID NO: 51) (HSP90B1 [479], log 2 scale, drug vs DMSO) | L/H ratio of acetylated peptide […](ac)R (SEQ ID NO: 54) (HSPA5 [96], log 2 scale, drug vs DMSO) | L/H ratio of acetylated peptide […](ac)R (SEQ ID NO: 55) (HSPA8 [71], log 2 scale, drug vs DMSO) | light to heavy ratio (L/H ratio), log 2 scale, acetylated peptide TEMDWVLK(ac)[…] (SEQ ID NO: 797) (Heterogeneous nuclear ribonucleoprotein F [98], gene HNRNPF, drug:DMSO) | light to heavy ratio (L/H ratio), log 2 scale, acetylated peptide K(ac)AINK(ac)AQK (SEQ ID NO: 793) (Histone H2B type 1-M [17:21], gene HIST1H2BM, drug:DMSO) | light to heavy ratio (L/H ratio) of acetylated peptide, log 2 scale (IGK(ac)[…] (SEQ ID NO: 236), Thioredoxin domain-containing protein 5 [244], TXNDC5, MUTED, MUTED-TXNDC5)
0.66: L/H ratio of acetylated peptide PDPAK(ac)SAPAPK(ac)K (SEQ ID NO: 16) (HIST1H2BO [6:12], log 2 scale, drug vs DMSO)
0.71 log 2: L/H ratio of acetylated peptide (HMVMQK(ac)LLR (SEQ ID NO: 438), Isoform 1 of Poly(U)-binding-splicing factor PUF60 [454], PUF60)
−0.66 log 2: L/H ratio of acetylated peptide (HTENVAK(ac)[…] (SEQ ID NO: 384), Transcriptional repressor CTCF [436], CTCF)
0.63 log 2: L/H ratio of acetylated peptide (IAVEAQNK(ac)YER (SEQ ID NO: 457), Nucleoprotein TPR [1081], TPR)
−0.41 log 2: L/H ratio of acetylated peptide (HSPEDPEK(ac)YSCFALFVK (SEQ ID NO: 432), Isoform 1 of DNA-dependent protein kinase catalytic subunit [700], PRKDC)
0.00 log 2: light to heavy ratio (L/H ratio) of acetylated peptide SLNLK(ac)HIK (SEQ ID NO: 607) (HLA-B associated transcript 1 [188], gene SNORD84, DDX39B, inhibitor:DMSO) | light to heavy ratio (L/H ratio) of acetylated peptide […](ac)R (SEQ ID NO: 267) (Heat shock 70 kDa protein 1A/1B [71], HSPA1B, HSPA1A, drug:DMSO) | light to heavy ratio (L/H ratio) of acetylated peptide YEK(ac)DIAAYR (SEQ ID NO: 595) (High mobility group protein B2 [157], gene HMGB2, inhibitor:DMSO) | light to heavy ratio (L/H ratio) of acetylated peptide PEPAK(ac)SAPAPK(ac)K (SEQ ID NO: 309) (Histone H2B type 2-E [6:12], HIST2H2BE, drug:DMSO) | light to heavy ratio (L/H ratio) of acetylated peptide K(ac)STGGK(ac)APR (SEQ ID NO: 310) (Histone H3.2 [10:15], HIST2H3D, HIST2H3A, HIST2H3C, drug:DMSO) | light to heavy ratio (L/H ratio) of acetylated peptide GK(ac)GGK(ac)GLGK (SEQ ID NO: 311) (Histone H4 [6:9], HIST2H4B, HIST1H4C and other H4 genes, drug:DMSO) | light to heavy ratio (L/H ratio) of acetylated peptide GLGK(ac)GGAK(ac)R (SEQ ID NO: 312) (Histone H4 [13:17], HIST2H4B, HIST1H4C and other H4 genes, drug:DMSO) | light to heavy ratio (L/H ratio) of acetylated peptide GLGK(ac)GGAKR (SEQ ID NO: 313) (Histone H4 [13], HIST2H4B, HIST1H4C and other H4 genes, drug:DMSO) | light to heavy ratio (L/H ratio) of acetylated peptide DGLQNEK(ac)NIVSTPVK (SEQ ID NO: 268) (Hydroxymethylglutaryl-CoA lyase mitochondrial [48], HMGCL, drug:DMSO) | light to heavy ratio (L/H ratio) of acetylated peptide K(ac)[…] (SEQ ID NO: 594) (Hydroxymethylglutaryl-CoA lyase mitochondrial [137], gene HMGCL, inhibitor:DMSO)
−0.52 log 2: L/H ratio of acetylated peptide (IDYGEYMDK(ac)NNVR (SEQ ID NO: 454), Single-stranded DNA-binding protein mitochondrial [122], SSBP1)
−0.74: L/H ratio of acetylated peptide AAEVLNK(ac)HSLSGRPLK (SEQ ID NO: 3) (HNRNPM [134], log 2 scale, drug vs DMSO)
